Data taken from PubChem BioAssay AID1915 (Broad Institute, 2009).
Inconclusive results are not listed.

Test system: Group A Streptococcus UMAA2166 viability, BacTiterGlo luminescence, 6 h
Assay: GAS UMAA2166 growth inhibition – luminescence, BacTiterGlo, counter-screen for streptokinase expression inhibitor project, dose response (AID 1915)

SMILES | IC50 [µM]
CN(C)c1ccnc2c[cH-]cc12.[Fe].c1ccc(-[c-]2[c-](-c3ccccc3)[c-](-c3ccccc3)[c-](-c3ccccc3)[c-]2-c2ccccc2)cc1 (configuration not stated) | 8.69
CNC(CC(C)C)C(=O)NC1C(=O)NC(CC(N)=O)C(=O)NC2C(=O)NC3C(=O)NC(C(=O)NC(C(=O)O)c4cc(O)cc(O)c4-c4cc3ccc4O)C(O)c3ccc(c(Cl)c3)Oc3cc2cc(c3OC2OC(CO)C(O)C(O)C2OC2CC(C)(N)C(O)C(C)O2)Oc2ccc(cc2Cl)C1O (configuration not stated) | 0.341
